Test results as given in paper PMC5515887, “Ruthenium-conjugated chrysin analogues modulate platelet activity, thrombus formation and haemostasis with enhanced efficacy” (Scientific Reports, 2017).
Where two headings read alike, the source gives them in different places.

Legend:
platelets (PRP) = test: LDH cytotoxicity assay in PRP; type: cell-based, human; details: between 6.25 and 100 μM
Procedure: In order to examine whether the native chrysin and its synthetic derivatives exert any cytotoxic effects in platelets at the concentrations used in this study, the lactate dehydrogenase (LDH) assay was performed using PRP.
The LDH cytotoxicity assay was performed using the LDH Cytotoxicity Assay Kit (Pierce, Thermo Fisher, UK) according to the manufacturer’s instructions. In brief, the PRP was incubated at 37 °C for 30 minutes. […] Following incubation, the reaction mixture (provided in the kit) was added to the PRP and incubated for 30 minutes. The reaction was then stopped using a stop solution provided in the kit. The absorbance of the mixture was measured at 490–650 nm using a Fluostar Optima spectrofluorimeter (BMG Labtech, Germany). Results provided represent duplicate absorbance measures from three separate donors.
Figure S7: Cytotoxic effects of chrysin and its synthetic derivatives in platelets. PRP was treated with different concentrations (as used in other experiments) of chrysin or its synthetic derivatives and the LDH cytotoxicity assay was performed according to the manufacturer’s instructions. The data were obtained using platelets from three separate donors and duplicate measures were used for each donor.
(1 picture or pasted object on this page, not shown here)

washed human platelets = test: Platelet uptake by LC-MS; type: in vitro ADME; details: 100 μM compound, 5 minutes
Procedure: The compounds taken up by the platelets were extracted with methanol (400 µL). The methanol extract was dried using vacuum centrifugation and reconstituted in 200 µL of methanol for mass spectrometry (LC-MS) analysis.

[1] = test system: inside-out signalling to integrin αIIbβ3; details: PRP, CRP-XL 0.5 μg/mL
Procedure: The level of fluorescence obtained with vehicle control was taken as 100% to calculate the extent of inhibition in chrysin and its derivatives-treated samples. R represents ‘resting’ platelets. Cumulative data represent mean ± S.D. (n = 4). […] Following incubation, clotting was initiated by the addition of 1 U/mL thrombin and the clot retraction was monitored for three hours. The remaining clot weight at three hours was measured to analyse the extent of retraction process. The image shown on the right is representative of four separate experiments. *Indicates significance with respect to controls and ^#indicates significance with respect to the respective chrysin concentrations; p values shown (*^,# p < 0.05, **^,## p < 0.01 and ***^,### p < 0.001) are as calculated by one-way ANOVA using Graphpad Prism.
The platelets (PRP) were treated with a vehicle control [0.1% (v/v) DMSO] or with different concentrations of chrysin and its synthetic derivatives prior to activation with CRP-XL (0.5 µg/mL). The levels of fibrinogen binding and P-selectin exposure were measured using FITC-labelled anti-human fibrinogen antibodies (Dako, UK) and PECy5-labelled CD62P antibodies (BD Biosciences, UK), respectively. The median fluorescence intensity was used to assess the levels of fibrinogen binding and P-selectin exposure on the platelet surface. The level of fluorescence obtained with the vehicle control was taken as 100% when compared with the treated samples.

Molecule	cytotoxic effects in platelets (LDH) (platelets (PRP))	uptake in platelets (washed human platelets)	inhibition of fibrinogen binding ([1]; 6.25 μM compound)	inhibition of fibrinogen binding ([1]; 100 μM compound)
O=c1cc(-c2ccccc2)oc2cc(O)cc(O)c12 [chrysin]	did not show significant cytotoxic effects	6.86 ± 0.27 µM		
chlorido [(5-oxo-κO)-7-hydroxy-(2-phenyl)-4H-chromen-4-thionato-κS] (η6-p-cymene)ruthenium(II) [Ru-thio-chrysin]			15–20%	~90%
